In brackets after ≈: the same amount, converted by molar mass.
Tests used:
[1] = system: N. gonorrhoeae WHO K; test: Liquid broth MIC in Fastidious broth; conditions: Neisseria gonorrhoeae, read-out: Minimum Inhibitory Concentration (MIC), N. gonorrhoeae WHO K
[2] = system: E. coli 901C; test: microbe, parasite or virus in culture; format: cell-based; conditions: Escherichia coli, read-out: MIC E. coli 901C

`Nc1ncc(C(=O)N[C@@H](C(=O)N[C@H]2Cc3cccc(C(=O)O)c3OB2O)c2ccc(P(=O)(O)O)cc2)s1` (racemic) [Example 50, (R)-3-((S)-2-(2-aminothiazole-5-carboxamido)-2-(4-phosphonophenyl)acetamido)-2-hydroxy-3,4-dihydro-2H-benzo[e][1,2]oxaborinine-8-carboxylic acid and (R)-3-((R)-2-(2-aminothiazole-5-carboxamido)-2-(4-phosphonophenyl)acetamido)-2-hydroxy-3,4-dihydro-2H-benzo[e][1,2]oxaborinine-8-carboxylic acid] showed an MIC [1] of 16 to 32 mg/L (≈ 29.3 to 58.6 µM) and an MIC [2] of 8 to 16 mg/L (≈ 14.6 to 29.3 µM).
Work on `CN1CCC[C@@H]1C(=O)N[C@@H](C(=O)N[C@H]1Cc2cccc(C(=O)O)c2OB1O)c1ccc(P(=O)(O)O)cc1` (racemic) [Example 54, (R)-2-hydroxy-3-((S)-2-((R)-1-methylpyrrolidine-2-carboxamido)-2-(4-phosphonophenyl)acetamido)-3,4-dihydro-2H-benzo[e][1,2]oxaborinine-8-carboxylic acid and (R)-2-hydroxy-3-((R)-2-((R)-1-methylpyrrolidine-2-carboxamido)-2-(4-phosphonophenyl)acetamido)-3,4-dihydro-2H-benzo[e][1,2]oxaborinine-8-carboxylic acid] yielded an MIC [1] of 16 to 32 mg/L (≈ 30.1 to 60.2 µM) and an MIC [2] of 32 to 64 mg/L (≈ 60.2 to 120 µM).
In the case of `CCN1CCN(C(=O)N[C@H](C(=O)N[C@H]2Cc3ccc(F)c(C(=O)O)c3OB2O)c2ccc(P(=O)(O)O)cc2)C(=O)C1=O` (single isomer, unassigned) [Example 9], the MIC [1] is reported as 1 to 2 mg/L (≈ 1.65 to 3.3 µM) and the MIC [2] is reported as 2 to 4 mg/L (≈ 3.3 to 6.6 µM).
`Cn1cccc(C(=O)N[C@H](C(=O)N[C@H]2Cc3cccc(C(=O)O)c3OB2O)c2ccc(P(=O)(O)O)cc2)c1=O` (single isomer, unassigned) [Example 181] was tested, and the MIC [1] was 16 to 32 mg/L (≈ 28.8 to 57.6 µM) and the MIC [2] was 32 to 64 mg/L (≈ 57.6 to 115 µM).
`O=C(O)c1cccc2c1OB(O)[C@@H](NC(=O)[C@@H](NC(=O)c1cccn(C(F)F)c1=O)c1ccc(P(=O)(O)O)cc1)C2` (single isomer, unassigned) [Example 190] gave an MIC [1] of 16 to 32 mg/L (≈ 27.1 to 54.1 µM) and an MIC [2] of 2 to 4 mg/L (≈ 3.38 to 6.77 µM).
`O=C(O)c1cccc2c1OB(O)[C@@H](NC(=O)[C@H](NC(=O)c1cccn(C(F)F)c1=O)c1ccc(P(=O)(O)O)cc1)C2` (single isomer, unassigned) [Example 191] gave an MIC [1] of 4 to 8 mg/L (≈ 6.77 to 13.5 µM) and an MIC [2] of under 1 mg/L.
In the case of `O=C(O)c1cccc2c1OB(O)[C@@H](NC(=O)[C@@H](NC(=O)c1cnc3sccn3c1=O)c1ccc(P(=O)(O)O)cc1)C2` (single isomer, unassigned) [Example 194], the MIC [1] is reported as 16 to 32 mg/L (≈ 26.7 to 53.5 µM) and the MIC [2] is reported as 2 to 4 mg/L (≈ 3.34 to 6.69 µM).
Work on `O=C(O)c1cccc2c1OB(O)[C@@H](NC(=O)[C@H](NC(=O)c1cnc3sccn3c1=O)c1ccc(P(=O)(O)O)cc1)C2` (single isomer, unassigned) [Example 195] yielded an MIC [1] of 16 to 32 mg/L (≈ 26.7 to 53.5 µM) and an MIC [2] of 2 to 4 mg/L (≈ 3.34 to 6.69 µM).
For `O=C(O)c1cccc2c1OB(O)[C@@H](NC(=O)C(NC(=O)[C@H]1CCCN1)c1ccc(P(=O)(O)O)cc1)C2` (stereo partly drawn) [Example 52, (3R)-2-hydroxy-3-(2-(4-phosphonophenyl)-2-((R)-pyrrolidine-2-carboxamido)acetamido)-3,4-dihydro-2H-benzo[e][1,2]oxaborinine-8-carboxylic acid], the MIC [1] was 16 to 32 mg/L (≈ 30.9 to 61.9 µM) and the MIC [2] was 32 to 64 mg/L (≈ 61.9 to 124 µM).
Work on `O=C1CC[C@H](C(=O)NC(C(=O)N[C@H]2Cc3cccc(C(=O)O)c3OB2O)c2ccc(P(=O)(O)O)cc2)N1` (stereo partly drawn) [Example 53, (3R)-2-hydroxy-3-(2-((R)-5-oxopyrrolidine-2-carboxamido)-2-(4-phosphonophenyl)acetamido)-3,4-dihydro-2H-benzo[e][1,2]oxaborinine-8-carboxylic acid] yielded an MIC [1] of 16 to 32 mg/L (≈ 30.1 to 60.2 µM) and an MIC [2] of 8 to 16 mg/L (≈ 15.1 to 30.1 µM).
`O=C(O)c1cccc2c1OB(O)[C@@H](NC(=O)C(NC(=O)N1CCCNC1=O)c1ccc(P(=O)(O)O)cc1)C2` (stereo partly drawn) [Example 56, (3R)-2-hydroxy-3-(2-(2-oxohexahydropyrimidine-1-carboxamido)-2-(4-phosphonophenyl)acetamido)-3,4-dihydro-2H-benzo[e][1,2]oxaborinine-8-carboxylic acid] gave an MIC [1] of 16 to 32 mg/L (≈ 29.3 to 58.6 µM) and an MIC [2] of 2 to 4 mg/L (≈ 3.66 to 7.32 µM).
Compound `NS(=O)(=O)NC(C(=O)N[C@H]1Cc2cccc(C(=O)O)c2OB1O)c1ccc(P(=O)(O)O)cc1` (stereo partly drawn) [Example 58, (3R)-2-hydroxy-3-(2-(4-phosphonophenyl)-2-(sulfamoylamino)acetamido)-3,4-dihydro-2H-benzo[e][1,2]oxaborinine-8-carboxylic acid] has an MIC [1] of 16 to 32 mg/L (≈ 32.1 to 64.1 µM) and an MIC [2] of over 128 mg/L.
`CS(=O)(=O)NC(C(=O)N[C@H]1Cc2cccc(C(=O)O)c2OB1O)c1ccc(P(=O)(O)O)cc1` (stereo partly drawn) [Example 59, (3R)-2-hydroxy-3-(2-(methylsulfonamido)-2-(4-phosphonophenyl)acetamido)-3,4-dihydro-2H-benzo[e][1,2]oxaborinine-8-carboxylic acid] showed an MIC [1] of 16 to 32 mg/L (≈ 32.1 to 64.2 µM) and an MIC [2] of 32 to 64 mg/L (≈ 64.2 to 128 µM).
With `CC(C)S(=O)(=O)NC(C(=O)N[C@H]1Cc2cccc(C(=O)O)c2OB1O)c1ccc(P(=O)(O)O)cc1` (stereo partly drawn) [Example 60, (3R)-2-hydroxy-3-(2-((1-methylethyl)sulfonamido)-2-(4-phosphonophenyl)acetamido)-3,4-dihydro-2H-benzo[e][1,2]oxaborinine-8-carboxylic acid] the MIC [1] was 16 to 32 mg/L (≈ 30.4 to 60.8 µM) and the MIC [2] was 32 to 64 mg/L (≈ 60.8 to 122 µM).
`O=C(O)c1cccc2c1OB(O)[C@@H](NC(=O)C(NS(=O)(=O)C1CC1)c1ccc(P(=O)(O)O)cc1)C2` (stereo partly drawn) [Example 61, (3R)-3-(2-(cyclopropanesulfonamido)-2-(4-phosphonophenyl)acetamido)-2-hydroxy-3,4-dihydro-2H-benzo[e][1,2]oxaborinine-8-carboxylic acid] showed an MIC [1] of 16 to 32 mg/L (≈ 30.5 to 61 µM) and an MIC [2] of 32 to 64 mg/L (≈ 61 to 122 µM).
`O=C1CC[C@@H](C(=O)NC(C(=O)N[C@H]2Cc3cccc(C(=O)O)c3OB2O)c2ccc(P(=O)(O)O)cc2)N1` (stereo partly drawn) [Example 64, (3R)-2-hydroxy-3-(2-((S)-5-oxopyrrolidine-2-carboxamido)-2-(4-phosphonophenyl)acetamido)-3,4-dihydro-2H-benzo[e][1,2]oxaborinine-8-carboxylic acid] gave an MIC [1] of 16 to 32 mg/L (≈ 30.1 to 60.2 µM) and an MIC [2] of 8 to 16 mg/L (≈ 15.1 to 30.1 µM).
`CC(=O)N1CCC[C@H]1C(=O)NC(C(=O)N[C@H]1Cc2cccc(C(=O)O)c2OB1O)c1ccc(P(=O)(O)O)cc1` (stereo partly drawn) [Example 65, (3R)-3-(2-((S)-1-acetylpyrrolidine-2-carboxamido)-2-(4-phosphonophenyl)acetamido)-2-hydroxy-3,4-dihydro-2H-benzo[e][1,2]oxaborinine-8-carboxylic acid] gave an MIC [1] of 16 to 32 mg/L (≈ 28.6 to 57.2 µM) and an MIC [2] of 32 to 64 mg/L (≈ 57.2 to 114 µM).
In the case of `CN1CCC[C@H]1C(=O)NC(C(=O)N[C@H]1Cc2cccc(C(=O)O)c2OB1O)c1ccc(P(=O)(O)O)cc1` (stereo partly drawn) [Example 66], the MIC [1] is reported as 16 to 32 mg/L (≈ 30.1 to 60.2 µM) and the MIC [2] is reported as 32 to 64 mg/L (≈ 60.2 to 120 µM).
In the case of `O=C(O)c1cccc2c1OB(O)[C@@H](NC(=O)C(NC(=O)C(F)(F)F)c1ccc(P(=O)(O)O)cc1)C2` (stereo partly drawn) [Example 172, (3R)-2-hydroxy-3-(2-(4-phosphonophenyl)-2-(2,2,2-trifluoroacetamido)acetamido)-3,4-dihydro-2H-benzo[e][1,2]oxaborinine-8-carboxylic acid], the MIC [1] is reported as 16 to 32 mg/L (≈ 31 to 62 µM) and the MIC [2] is reported as 32 to 64 mg/L (≈ 62 to 124 µM).
`O=C(O)c1cccc2c1OB(O)[C@@H](NC(=O)[C@H](NC(=O)[C@@H]1CCCN1)c1ccc(P(=O)(O)O)cc1)C2` [Example 173, (R)-2-hydroxy-3-((R)-2-(4-phosphonophenyl)-2-((S)-pyrrolidine-2-carboxamido)acetamido)-3,4-dihydro-2H-benzo[e][1,2]oxaborinine-8-carboxylic acid] gave an MIC [1] of 16 to 32 mg/L (≈ 30.9 to 61.9 µM) and an MIC [2] of 32 to 64 mg/L (≈ 61.9 to 124 µM).
Compound `O=C(O)c1cccc2c1OB(O)[C@@H](NC(=O)C(NC(=O)c1ccc[nH]c1=O)c1ccc(P(=O)(O)O)cc1)C2` (stereo partly drawn) [Example 174, (3R)-2-hydroxy-3-(2-(2-oxo-1,2-dihydropyridine-3-carboxamido)-2-(4-phosphonophenyl)acetamido)-3,4-dihydro-2H-benzo[e][1,2]oxaborinine-8-carboxylic acid] has an MIC [1] of 16 to 32 mg/L (≈ 29.6 to 59.1 µM) and an MIC [2] of 8 to 16 mg/L (≈ 14.8 to 29.6 µM).
`O=C(O)c1cccc2c1OB(O)[C@@H](NC(=O)[C@H](NC(=O)c1c[nH]ccc1=O)c1ccc(P(=O)(O)O)cc1)C2` [Example 175, (R)-2-hydroxy-3-((R)-2-(4-oxo-1,4-dihydropyridine-3-carboxamido)-2-(4-phosphonophenyl)acetamido)-3,4-dihydro-2H-benzo[e][1,2]oxaborinine-8-carboxylic acid] was tested, and the MIC [1] was 16 to 32 mg/L (≈ 29.6 to 59.1 µM) and the MIC [2] was 2 to 4 mg/L (≈ 3.7 to 7.39 µM).
In the case of `O=C(O)c1cccc2c1OB(O)[C@@H](NC(=O)C(NC(=O)c1cnc[nH]c1=O)c1ccc(P(=O)(O)O)cc1)C2` (stereo partly drawn) [Example 176, (3R)-2-hydroxy-3-(2-(6-oxo-1,6-dihydropyrimidine-5-carboxamido)-2-(4-phosphonophenyl)acetamido)-3,4-dihydro-2H-benzo[e][1,2]oxaborinine-8-carboxylic acid], the MIC [1] is reported as 16 to 32 mg/L (≈ 29.5 to 59 µM) and the MIC [2] is reported as 8 to 16 mg/L (≈ 14.8 to 29.5 µM).
With `N#Cc1ccnc(C(=O)NC(C(=O)N[C@H]2Cc3cccc(C(=O)O)c3OB2O)c2ccc(P(=O)(O)O)cc2)c1` (stereo partly drawn) [Example 179, (3R)-3-(2-(4-cyanopicolinamido)-2-(4-phosphonophenyl)acetamido)-2-hydroxy-3,4-dihydro-2H-benzo[e][1,2]oxaborinine-8-carboxylic acid] the MIC [1] was 16 to 32 mg/L (≈ 29.1 to 58.2 µM) and the MIC [2] was 8 to 16 mg/L (≈ 14.5 to 29.1 µM).

— patent publication US20240270762A1, “PENICILLIN-BINDING PROTEIN INHIBITORS” (priority 2021, published 2024)
